One assay concerns the target human RIPK1 (Homo sapiens (Human), UniProt Q13546). The assay can be described thus: KINOMEscan binding assay, human RIPK1. To be noted: equilibrium dissociation constant. The gist of the method: (§1)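 Binding constants were derived by fitting qPCR-quantified bead-retained kinase against compound concentration to the Hill equation, slope set at −1. Compound series were 3-fold over 11 points with 1% DMSO; most top concentrations were 30,000 nM. Kinases were T7-phage-tagged or HEK-293-produced with DNA tags.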

Another assay deals with human RIPK3 (Homo sapiens (Human), UniProt Q9Y572). The assay can be described thus: KINOMEscan binding assay, human RIPK3. The settings on record: equilibrium dissociation constant. The method, boiled down:
as §1

Assay [1] relates to U937 human histiocytic leukemia cell line. Description: Inhibition of TSQ induced necroptosis in U937 cells (CellTitre-Glo). To be noted: Homo sapiens, U-937, TSQ cocktail (TNF, Smac mimetic, Q-VD-OPh), 48 hours, read-out: Inhibition of TSQ-induced necroptosis (IC50 cell-based assay). The gist of the method: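 U937 cells (20000/well) treated with compound (10-point, 1:3 from 36 μM, 0.3% DMSO) plus TSQ cocktail (hTNF-Fc 100 ng/ml, Smac mimetic 500 nM, Q-VD-OPh 10 μM), 48 h at 37 °C. Viability by CellTiter-Glo luminescence; IC50 from 4-parameter logistic fit. Counter screen: same cells without TSQ.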

The next assay deals with U937 cells. Description: Counter screen: U937 cell viability without TSQ cocktail (off-target effect). Also on record: species or system human. To be noted: Homo sapiens, U-937, compound without TSQ cocktail, read-out: Off-target effect (IC50 cell-based assay). The gist of the method:
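U937 cells (20,000/well) exposed to compound (10-point 1:3 titration from 36 μM, 0.3% DMSO) without TSQ cocktail for 48 h at 37 °C/5% CO2. Viability read as ATP by CellTiter-Glo luminescence; IC50 from 4-parameter logistic fit.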
On the technique in general: A counterscreen serves to expose hits that act by an unwanted route or on another target.

For another assay, the target named is human MLKL (full length) (Homo sapiens (Human), UniProt Q8NB16). Description: KINOMEscan binding assay, human MLKL (full length). To be noted: equilibrium dissociation constant. The gist of the method:
as §1

Sequence of human RIPK3 (Q9Y572 whole entry): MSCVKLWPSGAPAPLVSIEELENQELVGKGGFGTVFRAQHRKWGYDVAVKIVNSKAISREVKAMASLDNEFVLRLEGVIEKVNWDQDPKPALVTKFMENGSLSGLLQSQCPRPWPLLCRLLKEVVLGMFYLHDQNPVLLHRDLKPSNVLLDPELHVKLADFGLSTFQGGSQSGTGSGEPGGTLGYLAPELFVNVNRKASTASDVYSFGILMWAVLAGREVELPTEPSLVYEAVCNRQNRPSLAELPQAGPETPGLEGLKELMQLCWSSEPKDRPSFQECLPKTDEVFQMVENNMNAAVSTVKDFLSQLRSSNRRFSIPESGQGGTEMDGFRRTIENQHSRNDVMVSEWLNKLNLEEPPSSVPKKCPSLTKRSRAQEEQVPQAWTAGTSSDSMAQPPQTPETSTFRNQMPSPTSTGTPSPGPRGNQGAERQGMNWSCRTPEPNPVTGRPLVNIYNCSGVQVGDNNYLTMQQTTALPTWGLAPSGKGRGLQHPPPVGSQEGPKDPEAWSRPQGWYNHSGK
Sequence of human RIPK1 (Q13546 whole entry): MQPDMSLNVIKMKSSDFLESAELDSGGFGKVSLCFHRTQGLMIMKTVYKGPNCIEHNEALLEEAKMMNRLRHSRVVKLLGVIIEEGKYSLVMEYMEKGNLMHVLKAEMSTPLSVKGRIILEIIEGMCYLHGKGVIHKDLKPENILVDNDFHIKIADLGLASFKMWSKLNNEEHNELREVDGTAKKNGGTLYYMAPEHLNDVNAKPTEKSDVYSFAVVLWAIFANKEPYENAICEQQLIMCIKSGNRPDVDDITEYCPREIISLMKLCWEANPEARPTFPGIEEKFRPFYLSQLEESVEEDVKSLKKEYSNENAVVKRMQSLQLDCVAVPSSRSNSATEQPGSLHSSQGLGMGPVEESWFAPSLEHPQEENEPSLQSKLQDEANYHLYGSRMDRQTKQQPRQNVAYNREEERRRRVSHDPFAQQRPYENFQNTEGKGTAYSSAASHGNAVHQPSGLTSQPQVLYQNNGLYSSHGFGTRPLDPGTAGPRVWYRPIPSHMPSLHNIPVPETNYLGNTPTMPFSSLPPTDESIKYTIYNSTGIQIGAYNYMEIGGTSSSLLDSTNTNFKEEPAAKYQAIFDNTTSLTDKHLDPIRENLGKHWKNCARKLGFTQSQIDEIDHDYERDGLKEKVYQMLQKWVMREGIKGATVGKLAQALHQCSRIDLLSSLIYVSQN
Sequence of human MLKL (full length) (Q8NB16 whole entry): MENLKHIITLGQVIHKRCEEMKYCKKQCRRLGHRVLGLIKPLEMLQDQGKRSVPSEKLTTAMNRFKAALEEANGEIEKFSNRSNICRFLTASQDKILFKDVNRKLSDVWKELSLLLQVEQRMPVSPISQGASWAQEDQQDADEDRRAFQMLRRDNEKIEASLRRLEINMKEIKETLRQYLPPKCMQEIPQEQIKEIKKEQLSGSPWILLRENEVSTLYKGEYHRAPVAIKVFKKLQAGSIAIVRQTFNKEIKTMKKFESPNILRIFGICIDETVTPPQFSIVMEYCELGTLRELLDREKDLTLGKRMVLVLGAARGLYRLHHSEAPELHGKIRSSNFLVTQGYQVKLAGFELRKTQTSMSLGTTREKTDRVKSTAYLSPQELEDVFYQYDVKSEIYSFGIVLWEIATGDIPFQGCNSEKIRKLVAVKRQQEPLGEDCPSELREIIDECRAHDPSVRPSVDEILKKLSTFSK

What is called Kd is the concentration at which binding is half-saturated. What is called IC50 is the concentration that inhibits the measured activity by half. `C[C@H](Oc1cc(-c2nn(C)c3c(-c4cnn(CC(F)(F)F)c4)cnc(N)c23)ccc1NS(=O)(=O)C(F)F)c1ccc(F)cc1` [Compound 116, (S)-N-(4-(4-amino-1-methyl-7-(1-(2,2,2-trifluoroethyl)-1H-pyrazol-4-yl)-1H-pyrazolo[4,3-c]pyridin-3-yl)-2-(1-(4-fluorophenyl)ethoxy)phenyl)-1,1-difluoromethanesulfonamide]: the Kd on human RIPK1 is greater than 10 µM; on human RIPK3, greater than 10 µM; at human MLKL (full length), 0.001 to 0.1 µM. Besides, the values for the IC50 (in assay [1]; in the assay on U937 cells) were less than 0.01 µM and greater than 10 µM, respectively.

`C[C@H](Oc1cc(-c2nn(C)c3c(-c4cnn(C5CCOCC5)c4)cnc(N)c23)ccc1NS(=O)(=O)C(F)F)c1cccc(Cl)c1` [Compound 122, (S)-N-(4-(4-amino-1-methyl-7-(1-(tetrahydro-2H-pyran-4-yl)-1H-pyrazol-4-yl)-1H-pyrazolo[4,3-c]pyridin-3-yl)-2-(1-(3-chlorophenyl)ethoxy)phenyl)-1,1-difluoromethanesulfonamide]: the Kd on human RIPK1 was greater than 10 µM; on human RIPK3, greater than 10 µM; at human MLKL (full length), less than 0.001 µM. In addition, the IC50 is 0.01 to 1 µM in assay [1] and greater than 10 µM in the assay with U937 cells.

Take `C[C@H](Oc1cc(-c2nn(C)c3c(-c4cnn(C5CCCC5)c4)cnc(N)c23)ccc1NS(=O)(=O)C(F)F)c1ccc(F)cc1` [Compound 30, (S)-N-(4-(4-amino-7-(1-cyclopentyl-1H-pyrazol-4-yl)-1-methyl-1H-pyrazolo[4,3-c]pyridin-3-yl)-2-(1-(4-fluorophenyl)ethoxy)phenyl)-1,1-difluoromethanesulfonamide]: the Kd on human RIPK1 is greater than 10 µM; on human RIPK3, greater than 10 µM; on human MLKL (full length) it was 0.001 to 0.1 µM. In addition, the IC50 is less than 0.01 µM in assay [1] and greater than 10 µM with U937 cells.

For the compound `C[C@H](Oc1cc(-c2nn(C)c3c(-c4cnn(C(C)(C)CO)c4)cnc(N)c23)ccc1NS(=O)(=O)C(F)F)c1ccc(F)cc1` [Compound 97, (S)-N-(4-(4-amino-7-(1-(1-hydroxy-2-methylpropan-2-yl)-1H-pyrazol-4-yl)-1-methyl-1H-pyrazolo[4,3-c]pyridin-3-yl)-2-(1-(4-fluorophenyl)ethoxy)phenyl)-1,1-difluoromethanesulfonamide], the dissociation constant Kd at human RIPK1 was greater than 10 µM; on human RIPK3, greater than 10 µM; at human MLKL (full length), less than 0.001 µM. The IC50 was 0.01 to 1 µM in assay [1] and greater than 10 µM in the assay with U937 cells.

In the case of `Cn1nc(-c2ccc(NS(=O)(=O)C(F)F)c(OCc3ccc(Cl)c(F)c3)c2)c2c(N)ncc(-c3cnn(C4CCOCC4)c3)c21` [Compound 132, N-(4-(4-amino-1-methyl-7-(1-(tetrahydro-2H-pyran-4-yl)-1H-pyrazol-4-yl)-1H-pyrazolo[4,3-c]pyridin-3-yl)-2-((4-chloro-3-fluorobenzyl)oxy)phenyl)-1,1-difluoromethanesulfonamide], the results for the equilibrium dissociation constant (Kd) at human RIPK1, at human RIPK3 and on human MLKL (full length) were greater than 10 µM, greater than 10 µM and less than 0.001 µM, respectively. For the same compound, the IC50 is 0.01 to 1 µM in assay [1] and greater than 10 µM with U937 cells.

Take `C[C@H](Oc1cc(-c2nn(C)c3c(-c4cnn(C5CCN(C)C6(CC6)C5)c4)cnc(N)c23)ccc1NS(=O)(=O)C(F)F)c1ccc(F)cc1` (single isomer, unassigned) [Compound 170, N-(4-(4-amino-1-methyl-7-(1-((S*)-4-methyl-4-azaspiro[2.5]octan-7-yl)-1H-pyrazol-4-yl)-1H-pyrazolo[4,3-c]pyridin-3-yl)-2-((S)-1-(4-fluorophenyl)ethoxy)phenyl)-1,1-difluoromethanesulfonamide]: the dissociation constant (Kd) at human RIPK1 was greater than 10 µM; at human RIPK3, greater than 10 µM; on human MLKL (full length), 0.001 to 0.1 µM. Further, the IC50 in assay [1] is 0.01 to 1 µM; in the assay with U937 cells it was greater than 10 µM.

In the case of `C[C@H](Oc1cc(-c2nn(C)c3c(-c4cnn(C5C[C@@H]6CN(C)C[C@@H]6C5)c4)cnc(N)c23)ccc1NS(=O)(=O)C(F)F)c1ccc(F)cc1` (stereo partly drawn) [Compound 164, N-(4-(4-amino-1-methyl-7-(1-((3aR,6aS)-2-methyloctahydrocyclopenta[c]pyrrol-5-yl)-1H-pyrazol-4-yl)-1H-pyrazolo[4,3-c]pyridin-3-yl)-2-((S)-1-(4-fluorophenyl)ethoxy)phenyl)-1,1-difluoromethanesulfonamide], the Kd on human RIPK1 is greater than 10 µM; on human RIPK3, greater than 10 µM; at human MLKL (full length) it was less than 0.001 µM. Moreover, the IC50 was less than 0.01 µM in assay [1] and greater than 10 µM with U937 cells.

For `C[C@H](Oc1cc(-c2nn(C)c3c(C#CC4CCN(C)CC4)cnc(N)c23)ccc1NS(=O)(=O)C(F)F)c1ccc(F)cc1` [Compound 80, (S)—N-(4-(4-amino-1-methyl-7-((1-methylpiperidin-4-yl)ethynyl)-1H-pyrazolo[4,3-c]pyridin-3-yl)-2-(1-(4-fluorophenyl)ethoxy)phenyl)-1,1-difluoromethanesulfonamide], the Kd on human RIPK1 is greater than 10 µM; on human RIPK3 it was greater than 10 µM; on human MLKL (full length), less than 0.001 µM. The IC50 is 0.01 to 1 µM in assay [1] and greater than 10 µM in the assay on U937 cells.

Values taken from patent publication US20250059188A1, “ARYLSULPHONAMIDE COMPOUNDS” (Anaxis Pharma Pty Ltd, priority 2021, published 2025).
